pEC50: −log10 of the molar value.
Molecular target: recombinant DYRK1A kinase (Homo sapiens (Human), UniProt Q13627)
Test: DYRK1A kinase assay (Ser/Thr 18 peptide Z-lyte FRET assay)
Assay type: biochemical
Conditions: recombinant DYRK1A 0.25 µg/mL, ATP 15 µM, Ser/Thr peptide 18 4 µM, one hour at room temperature; table head prints EC50, method says IC50
Protocol: Representative compounds were screened using the assay procedure for DYRK1A kinase activity as described below.
Each compound was dissolved in DMSO as a 10 mM stock and used to prepare compound source plates. Serial dilution (1:3, 11-point dose-response curves from 10 µM to 0.00016 µM) and compound transfer was performed using the ECHO 550 (Labcyte, Sunnyvale, CA) into 1536-well black-walled round bottom plates (Corning).
The DYRK1A kinase assay was run using the Ser/Thr 18 peptide Z-lyte assay kit according to manufacturer’s instructions (Life Technologies- a Division of Thermo-Fisher). This is a non-radioactive assay using fluorescence resonance energy transfer (FRET) between coumarin and fluorescein to detect kinase activity which is represented as a ratio of coumarin emission/fluorescein emission.
Briefly, recombinant DYRK1A kinase, ATP and Ser/Thr peptide 18 were prepared in 1X Kinase buffer to final concentrations of 0.25 µg/mL, 15 µM, and 4 µM respectively. The mixture was allowed to incubate with the representative compounds for one hour at room temperature. All reactions were performed in duplicate. Unphosphorylated (“0% Control”) and phosphorylated (“100% control”) forms of Ser/Thr 18 served as control reactions. Additionally, an 11-point dose-response curve of Staurosporine (1uM top) was run to serve as a positive compound control.
After incubation, Development Reagent A was diluted in Development Buffer then added to the reaction and allowed to further incubate for one hour at room temperature. The plate was read at Ex 400 Em 455 to detect the coumarin signal and Ex 400 Em 520 to measure the signal (EnVision Multilabel Plate Reader, PerkinElmer).
The Emission ratio (Em) was calculated as a ratio of the coumarin (C) emission signal (at 445 nm)/Fluorescein (F) emission signal (at 520 nm). The percent phosphorylation was then calculated using the following formula: [1 — ((Em ratio X F100%)—C100%)/ ((C0%—C100%) + (Em ratio X (F100% - F0%)))]. Dose-response curves were generated, and inhibitory concentration (IC50) values were calculated using non-linear regression curve fit in the Dotmatics’ Studies Software (Bishops Stortford, UK).

Row | Compound | pEC50
1 | Cc1nc2ccc(-c3ccn4nc(NC5CCN(CCC(F)(F)F)CC5)ncc34)nc2n1CC(F)F [Compound 1851] | 7.96
2 | C[C@]1(O)CC[C@@H](Nc2ncc3c(-c4ccc5ncccc5c4)ccn3n2)CC1 [Compound 1323, (1s,4s)-1-Methyl-4-((5-(quinolin-6-yl)pyrrolo[2,1-f][1,2,4]triazin-2-yl)amino)cyclohexan-1-ol] | 8.15
3 | Cc1nc2ccc(-c3ccn4nc(N[C@H]5CCN(C)C[C@H]5F)ncc34)nc2n1CC(F)F [Compound 1856] | 8.22
4 | CCO[C@H]1CC[C@@H](Nc2ncc3c(-c4cnc5nccn5c4)ccn3n2)CC1 [Compound 263, N-(cis-4-Ethoxycyclohexyl)-5-(imidazo[1,2-a]pyrimidin-6-yl)pyrrolo[2,1-f][1,2,4]triazin-2-amine] | 8.22
5 | Cc1nc2ncc(-c3ccn4nc(NC5CCN(C6COC6)CC5)ncc34)cc2n1CC(F)F [Compound 1889, 5-(1-(2,2-Difluoroethyl)-2-methyl-1H-imidazo[4,5-b]pyridin-6-yl)-N-(1-(oxetan-3-yl)piperidin-4-yl)pyrrolo[2,1-f][1,2,4]triazin-2-amine] | 8.15
6 | CO[C@H]1CC[C@H](Nc2ncc3c(-c4cnc5nccn5c4)ccn3n2)CC1 [Compound 260, 5-(Imidazo[1,2-a]pyrimidin-6-yl)-N-(trans-4-methoxycyclohexyl)pyrrolo [2,1-f] [1,2,4]triazin-2-amine] | 8.05
7 | C[C@]1(O)CC[C@H](Nc2ncc3c(-c4ccn5nccc5c4)ccn3n2)CC1 [Compound 1891, trans-1-Methyl-4-((5-(pyrazolo[1,5-a]pyridin-5-yl)pyrrolo[2,1-f][1,2,4]triazin-2-yl)amino)cyclohexan-1-ol] | 7.96
8 | FC(F)(F)CNc1ncc2c(-c3cnc4nccn4c3)ccn2n1 [Compound 218, 5-(Imidazo[1,2-a]pyrimidin-6-yl)-N-(2,2,2-trifluoroethyl)pyrrolo[2,1-f] [1,2,4]triazin-2-amine] | 7.89
9 | c1cn2cc(-c3ccn4nc(NCC5COC5)ncc34)ccc2n1 [Compound 20] | 7.17
10 | COCCO[C@H]1CC[C@@H](Nc2ncc3c(-c4cnc5ncccc5c4)ccn3n2)CC1 [Compound 1543, N-(cis-4-(2-Methoxyethoxy)cyclohexyl)-5-(1,8-naphthyridin-3-yl)pyrrolo [2,1-f][1,2,4]triazin-2-amine] | 8.70
11 | c1cn2cc(-c3ccn4nc(NCC5CC5)ncc34)ccc2n1 [Compound 16, N-(Cyclopropylmethyl)-5-(imidazo[1,2-a]pyridin-6-yl)pyrrolo[2,1-f][1,2,4] triazin-2-amine] | 7.32
12 | c1cnc2ncc(-c3ccn4nc(N[C@H]5CC[C@@H](N6CCOCC6)CC5)ncc34)cc2c1 [Compound 1551, N-(cis-4-Morpholinocyclohcxy1)-5-(1,8-naphthyridin-3-yl)pyrrolo[2,1-f] [1,2,4]triazin-2-amine] | 7.42
13 | Cc1nc2ccc(-c3ccn4nc(N[C@H]5CCN(C)C(=O)C5)ncc34)nc2n1CC(F)F [Compound 1911, (S)-4-((5-(3-(2,2-Difluoroethyl)-2-methyl-3H-imidazo [4,5-b]pyridin-5-yl)pyrrolo[2,1-f] [1,2,4]triazin-2-yl)amino)-1-methylpiperidin-2-one] | 8.40
14 | CN1CC(Nc2ncc3c(-c4ccc5nccn5c4)ccn3n2)C1 [Compound 64, 5-(Imidazo[1,2-a]pyridin-6-yl)-N-(1-methylazetidin-3-yl)pyrrolo[2,1-f] [1,2,4]triazin-2-amine] | 6.72
15 | Cc1nc2ncc(-c3ccn4nc(N[C@H]5CC[C@](C)(O)CC5)ncc34)cc2n1CC(F)F [Compound 1879, trans-4-((5-(1-(2,2-Difluoroethyl)-2-methyl-1H-imidazo[4,5-b]pyridin-6-yl)pyrrolo[2,1-f][1,2,4]triazin-2-yl)amino)-1-methylcyclohexan-1-ol] | 8.70
16 | Cc1nc2ccc(-c3ccn4nc(NC5CCN(CCF)CC5)ncc34)nc2n1CC(F)F [Compound 1849] | 8.15
17 | Cc1nc2ccc(-c3ccn4nc(N[C@H]5CN(C)C[C@H]5F)ncc34)nc2n1CC(F)F [Compound 1903, 5-(3-(2,2-Difluoroethyl)-2-methyl-3H-imidazo[4,5-b]pyridin-5-yl)-N-((3S,4R)-4-fluoro-1-methylpyrrolidin-3-yl)pyrrolo[2,1-f][1,2,4]triazin-2-amine] | 7.92
18 | CC(=O)N[C@]1(C)C[C@@H](Nc2ncc3c(-c4ccc5nccnc5c4)ccn3n2)C1 [Compound 1981, N-((1r,3r)-1-methyl-3-((5-(quinoxalin-6-yl)pyrrolo[2,1-f][1,2,4]triazin-2-yl)amino)cyclobutyl)acetamide] | 8.70
19 | Cc1nc2ccc(-c3ccn4nc(N[C@H]5CC[C@@H](CN6CC(F)C6)CC5)ncc34)nc2n1CC(F)F [Compound 1894, 5-(3-(2,2-Difluoroethyl)-2-methyl-3H-imidazo[4,5-b]pyridin-5-yl)-N-(cis-4-((3-fluoroazetidin-1-yl)methyl)cyclohexyl)pyrrolo [2,1-f] [1,2,4]triazin-2-amine] | 7.96

Further molecules by rising pEC50, results first:

Row | pEC50 | Compound
20 | 7.48 | Cc1nc2ccc(-c3ccn4nc(N[C@H]5CC[C@@](C)(O)CC5)ncc34)nc2n1CC(C)C [Compound 1829, cis-4-((5-(3-Isobutyl-2-methyl-3H-imidazo[4,5-b]pyridin-5-yl)pyrrolo[2,1-f] [1,2,4]triazin-2-yl)amino)-1-methylcyclohexan-1-ol]
21 | 7.80 | Cc1nc2ccc(-c3ccn4nc(N[C@H]5CC[C@@](C)(O)CC5)ncc34)nc2n1CC(C)(C)C#N [Compound 1869, 3-(5-(2-((cis-4-Hydroxy-4-methylcyclohexyl)amino)pyrrolo[2,1-f][1,2,4]triazin-5-yl)-2-methyl-3H-imidazo[4,5-b]pyridin-3-yl)-2,2-dimethylpropanenitrile]
22 | 7.92 | Cc1cnc2ncc(-c3ccn4nc(NC5CCC(F)(F)CC5)ncc34)cn12 [Compound 398, N-(4,4-Difluorocyclohexyl)-5-(3-methylimidazo[1,2-a]pyrimidin-6-yl) pyrrolo[2,1-f] [1,2,4]triazin-2-amine]
23 | 8.10 | Cc1nc2ccc(-c3ccn4nc(N[C@@H]5CCN(C)C[C@H]5F)ncc34)nc2n1CC(F)F [Compound 1854]
24 | 8.15 | Cc1nc2ccc(-c3ccn4nc(N[C@H]5CC[C@@H](OC(F)F)CC5)ncc34)nc2n1CC(F)F [Compound 1113, N-(cis-4-(Difluoromethoxy)cyclohexyl)-5-(3-(2,2-difluoroethyl)-2-methyl-3H-imidazo[4,5-b]pyridin-5-yl)pyrrolo[2,1-f][1,2,4]triazin-2-amine]
25 | 8.22 | Cc1nc2ccc(-c3ccn4nc(NC5CCN(C6COC6)CC5)ncc34)nc2n1CC(F)F [Compound 1862, 5-(3-(2,2-Difluoroethyl)-2-methyl-3H-imidazo[4,5-b]pyridin-5-yl)-N-(1-(oxetan-3-yl)piperidin-4-yl)pyrrolo[2,1-f][1,2,4]triazin-2-amine]
26 | 8.30 | COCCO[C@H]1C[C@@H](Nc2ncc3c(-c4cnc5nccn5c4)ccn3n2)C1 [Compound 244, 5-(Imidazo[1,2-a]pyrimidin-6-yl)-N-(cis-3-(2-methoxyethoxy)cyclobutyl) pyrrolo[2,1-f] [1,2,4]triazin-2-amine]
27 | 8.40 | Cc1nc2ccc(-c3ccn4nc(N[C@H]5CC[C@@H](C(=O)N(C)C)CC5)ncc34)nc2n1CC(F)F [Compound 1845, cis-4-((5-(3-(2,2-Difluoroethyl)-2-methyl-3H-imidazo[4,5-b]pyridin-5-yl)pyrrolo[2,1-f][1,2,4]triazin-2-yl)amino)-N,N-dimethylcyclohexane-1-carboxamide]
28 | 8.52 | [2H]C([2H])([2H])O[C@H]1CC[C@@H](Nc2ncc3c(-c4ccc5nc(C)n(CC(F)F)c5n4)ccn3n2)CC1 [Compound 1803, 5-(3-(2,2-Difluoroethyl)-2-methyl-3H-imidazo[4,5-b]pyridin-5-yl)-N-(cis-4-(methoxy-d3)cyclohexyl)pyrrolo[2,1-f][1,2,4]triazin-2-amine]
29 | 8.52 | COCCO[C@H]1CC[C@@H](Nc2ncc3c(-c4cnc5nc(C)n(CC(F)F)c5c4)ccn3n2)CC1 [Compound 691, 5-(1-(2,2-Difluoroethyl)-2-methyl-1H-imidazo[4,5-b]pyridin-6-yl)-N-(cis-4-(2-methoxyethoxy)cyclohexyl)pyrrolo[2,1-f][1,2,4]triazin-2-amine]
30 | 8.70 | Cc1nc2ncc(-c3ccn4nc(N[C@H]5CC[C@@](C)(O)CC5)ncc34)nc2n1CC(F)F [Compound 1974, cis-4-((5-(1-(2,2-difluoroethyl)-2-methyl-1H-imidazo[4,5-b]pyrazin-6-yl)pyrrolo[2,1-f][1,2,4]triazin-2-yl)amino)-1-methylcyclohexan-1-ol]
